This note sets out measurements from patent publication US7022690B2, “Carboxylic acid substituted heterocycles, derivatives thereof and methods of use” (Amgen Inc., priority 1997, dated 2006).

For experiment [1], the target named is Human neutrophil collagenase (HNC) (Homo sapiens, UniProt P22894). The experiment in a line: Human Neutrophil Collagenase Assay. In kind it is biochemical. Particulars: fluorogenic peptide substrate, 96-well plate in duplicate; reference inhibitor.
Description: Human neutrophil collagenase (HNC) activity is determined by using fluorogenic peptide substrate Dnp-Pro-b-Cyclohexyl-Ala-Gly-Cys(Me)-His-Ala-Lys-(N-methylanthranilic acid)-NH2. The N-terminus Dnp group and the C-terminus N-methyl-anthranilyl moiety (Nma) are fluorescence self-quenching until the peptide is cleaved at the Gly-Cys(me) bond. The fluorescence from the cleavage products is measured on a Bio-Tek Instrument FL500 fluorescence micro-plate reader (excitation at 360 nm, emission at 460 nm).
Experiment [2] has as its target Human fibroblast stromelysin (HFS) (Homo sapiens, UniProt P08254). The experiment in a line: biochemical.
Description: Human Fibroblast Stromelysin Assay
Human fibroblast stromelysin (HFS) activity is determined by using fluorogenic peptide substrate Dnp-Pro-b-Cyclohexyl-Ala-Gly-Cys(Me)-His-Ala-Lys-(N-methylanthranilic acid)-NH2. The N-terminus Dnp group and the C-terminus N-methyl-anthranilyl moiety (Nma) are fluorescence self-quenching until the peptide is cleaved at the Gly-Cys(me) bond. The fluorescence from the cleavage products is measured on a Bio-Tek Instrument FL500 fluorescence micro-plate reader (excitation at 360 nm, emission at 460 nm).

Human fibroblast stromelysin (HFS), sequence (P08254 100-477): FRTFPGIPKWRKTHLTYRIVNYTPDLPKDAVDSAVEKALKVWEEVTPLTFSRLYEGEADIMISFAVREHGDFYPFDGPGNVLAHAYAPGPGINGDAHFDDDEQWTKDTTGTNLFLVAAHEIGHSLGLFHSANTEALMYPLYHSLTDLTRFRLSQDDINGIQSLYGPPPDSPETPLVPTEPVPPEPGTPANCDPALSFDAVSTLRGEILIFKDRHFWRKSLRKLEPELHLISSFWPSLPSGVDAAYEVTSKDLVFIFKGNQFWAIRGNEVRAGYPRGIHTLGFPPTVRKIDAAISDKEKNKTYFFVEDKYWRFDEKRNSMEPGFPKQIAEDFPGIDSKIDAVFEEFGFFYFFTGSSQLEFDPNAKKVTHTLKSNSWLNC
Human neutrophil collagenase (HNC), sequence (P22894 101-467): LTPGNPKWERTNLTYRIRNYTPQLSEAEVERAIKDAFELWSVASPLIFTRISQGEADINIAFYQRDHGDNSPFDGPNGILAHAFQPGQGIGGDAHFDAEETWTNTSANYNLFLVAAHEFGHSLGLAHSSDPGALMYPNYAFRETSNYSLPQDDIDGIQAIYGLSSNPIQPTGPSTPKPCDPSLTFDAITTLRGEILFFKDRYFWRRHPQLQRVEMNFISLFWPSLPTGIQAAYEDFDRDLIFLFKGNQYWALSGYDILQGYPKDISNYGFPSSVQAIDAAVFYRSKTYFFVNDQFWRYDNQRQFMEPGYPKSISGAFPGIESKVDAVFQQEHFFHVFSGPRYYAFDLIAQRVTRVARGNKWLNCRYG

For `CCCCC[C@H](CC(=O)NO)C(=O)N[C@H](C(=O)N1CCC[C@H]1CO)C(C)C` [Actinonin], the Ki in experiment [1] and in experiment [2] was 722 nM each time.

The term Ki denotes the dissociation constant of the complex between target and ligand, obtained from inhibition or displacement. A high value points to weaker binding.
